Source: PMC4340503 (Nature, 2008)
Where a SMILES comes first, the peptide text is derived from it. [ ]: non-standard residue; d: D form. The star is where a group is joined. X1 = CCCCCCCCCCCCCCCC(=O)OC[C@H](COP(=O)(O)OCCNC(=O)CCCc1ccc(N2C(=O)CC(*)C2=O)cc1)OC(=O)CCCCCCCCCCCCCCC; pS = N[C@@H](COP(=O)(O)O)C(=O)O

Tests used:
AP2 core σ2V88D = AP2 core σ2V88D (UniProt P17427+P62743+P63010+P84092, V88D); type: binding; details: pH 8.7
AP2 core σ2L103S = AP2 core σ2L103S (UniProt P17427+P62743+P63010+P84092, L103S); type: binding; details: pH 8.7
AP2 core σ2L103S, sequence (P62743 whole entry L103S): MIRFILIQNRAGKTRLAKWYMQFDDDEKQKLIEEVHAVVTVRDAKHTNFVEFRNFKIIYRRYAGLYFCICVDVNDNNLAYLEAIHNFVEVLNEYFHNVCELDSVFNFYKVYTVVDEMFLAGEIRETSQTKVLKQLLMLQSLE
AP2 core σ2L103S, sequence (P84092 whole entry): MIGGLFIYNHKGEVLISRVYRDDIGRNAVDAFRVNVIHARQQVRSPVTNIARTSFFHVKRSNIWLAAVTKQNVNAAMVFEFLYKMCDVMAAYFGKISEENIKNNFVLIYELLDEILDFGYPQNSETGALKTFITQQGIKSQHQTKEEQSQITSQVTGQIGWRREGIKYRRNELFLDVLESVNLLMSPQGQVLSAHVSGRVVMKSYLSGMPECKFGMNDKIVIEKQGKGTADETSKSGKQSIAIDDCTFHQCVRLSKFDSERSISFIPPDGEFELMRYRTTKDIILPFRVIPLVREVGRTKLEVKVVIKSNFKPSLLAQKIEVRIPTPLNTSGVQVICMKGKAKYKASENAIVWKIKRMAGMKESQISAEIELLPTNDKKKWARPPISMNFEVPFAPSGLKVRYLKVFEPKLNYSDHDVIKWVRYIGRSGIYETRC
AP2 core σ2L103S, sequence (P17427 1-621): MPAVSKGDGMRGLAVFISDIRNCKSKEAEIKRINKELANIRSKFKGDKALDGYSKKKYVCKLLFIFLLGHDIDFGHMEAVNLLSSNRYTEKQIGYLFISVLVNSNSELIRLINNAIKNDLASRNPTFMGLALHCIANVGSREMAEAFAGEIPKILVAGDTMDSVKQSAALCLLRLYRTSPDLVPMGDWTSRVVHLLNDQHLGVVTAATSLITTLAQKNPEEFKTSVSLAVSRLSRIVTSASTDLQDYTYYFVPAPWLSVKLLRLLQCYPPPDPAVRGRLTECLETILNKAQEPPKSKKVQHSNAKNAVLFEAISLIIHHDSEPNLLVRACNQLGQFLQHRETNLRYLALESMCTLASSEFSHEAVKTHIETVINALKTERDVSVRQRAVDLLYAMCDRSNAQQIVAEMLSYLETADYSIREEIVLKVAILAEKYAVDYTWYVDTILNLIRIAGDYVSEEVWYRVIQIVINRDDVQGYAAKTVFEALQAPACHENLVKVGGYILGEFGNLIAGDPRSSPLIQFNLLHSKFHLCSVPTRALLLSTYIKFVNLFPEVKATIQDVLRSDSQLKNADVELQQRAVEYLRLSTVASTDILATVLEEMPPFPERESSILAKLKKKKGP
AP2 core σ2L103S, sequence (P63010 1-591): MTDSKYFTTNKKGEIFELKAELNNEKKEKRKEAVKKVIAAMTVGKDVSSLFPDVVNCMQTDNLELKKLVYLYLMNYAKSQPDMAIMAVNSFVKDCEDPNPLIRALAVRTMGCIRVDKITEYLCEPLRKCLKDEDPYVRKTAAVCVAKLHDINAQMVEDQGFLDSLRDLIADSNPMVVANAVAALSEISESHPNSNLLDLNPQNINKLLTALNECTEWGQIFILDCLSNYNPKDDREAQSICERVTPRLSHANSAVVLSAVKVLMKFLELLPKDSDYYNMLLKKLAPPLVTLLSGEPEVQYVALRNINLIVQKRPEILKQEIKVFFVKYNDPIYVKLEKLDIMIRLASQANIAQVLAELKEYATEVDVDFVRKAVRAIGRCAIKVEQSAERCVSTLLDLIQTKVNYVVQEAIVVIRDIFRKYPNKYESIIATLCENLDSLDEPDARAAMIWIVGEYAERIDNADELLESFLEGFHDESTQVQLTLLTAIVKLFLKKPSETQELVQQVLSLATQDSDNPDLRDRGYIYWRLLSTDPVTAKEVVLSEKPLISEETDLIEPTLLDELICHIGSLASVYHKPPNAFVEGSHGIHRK

AP2 core σ2V88D, sequence (P62743 whole entry V88D): as the sequence (P62743 whole entry L103S) above, with V88D, S103L counted along it
AP2 core σ2V88D, sequence (P63010 1-591, stated change not applied): as the sequence (P63010 1-591) above
AP2 core σ2V88D, sequence (P84092 whole entry, stated change not applied): as the sequence (P84092 whole entry) above
AP2 core σ2V88D, sequence (P17427 1-621): as the sequence (P17427 1-621) above

In the case of `CCCCCCCCCCCCCCCC(=O)OC[C@H](COP(=O)(O)OCCNC(=O)CCCc1ccc(N2C(=O)CC(SC[C@H](N)C(=O)N[C@@H](Cc3c[nH]cn3)C(=O)N[C@@H](CCCNC(=N)N)C(=O)N[C@@H](CCCNC(=N)N)C(=O)N[C@@H](CCCNC(=N)N)C(=O)N[C@@H](CCC(N)=O)C(=O)N[C@@H](C)C(=O)N[C@@H](CCC(=O)O)C(=O)N[C@@H](CCCNC(=N)N)C(=O)N[C@@H](CCSC)C(=O)N[C@@H](COP(=O)(O)O)C(=O)N[C@@H](CCC(N)=O)C(=O)N[C@H](C(=O)N[C@@H](CCCCN)C(=O)N[C@@H](CCCNC(=N)N)C(=O)N[C@@H](CC(C)C)C(=O)N[C@@H](CC(C)C)C(=O)N[C@@H](CO)C(=O)N[C@@H](CCC(=O)O)C(=O)N[C@@H](CCCCN)C(=O)O)[C@@H](C)CC)C2=O)cc1)OC(=O)CCCCCCCCCCCCCCC` (some centres unmarked) [phospho-CD4 Q-peptide] (H-C(X1)HRRRQAERM[pS]QIKRLLSEK-OH; N-terminus and C-terminus assumed), the KD (AP2 core σ2V88D) is reported as “below detectable levels” and the KD (AP2 core σ2L103S) is reported as “below detectable levels”.
